Experimental data reported in BindingDB's records for doi:10.1021/jm980094b (National Institute of Diabetes, 1998).

Biological target: Adenosine receptor A2a (Rattus norvegicus, UniProt P30543)
Assay: Binding affinity was determined in radioligand binding assay at rat striatal Adenosine A2A receptor vs [3H]-CGS- 21680

Sequence of Adenosine receptor A2a (P30543 whole entry): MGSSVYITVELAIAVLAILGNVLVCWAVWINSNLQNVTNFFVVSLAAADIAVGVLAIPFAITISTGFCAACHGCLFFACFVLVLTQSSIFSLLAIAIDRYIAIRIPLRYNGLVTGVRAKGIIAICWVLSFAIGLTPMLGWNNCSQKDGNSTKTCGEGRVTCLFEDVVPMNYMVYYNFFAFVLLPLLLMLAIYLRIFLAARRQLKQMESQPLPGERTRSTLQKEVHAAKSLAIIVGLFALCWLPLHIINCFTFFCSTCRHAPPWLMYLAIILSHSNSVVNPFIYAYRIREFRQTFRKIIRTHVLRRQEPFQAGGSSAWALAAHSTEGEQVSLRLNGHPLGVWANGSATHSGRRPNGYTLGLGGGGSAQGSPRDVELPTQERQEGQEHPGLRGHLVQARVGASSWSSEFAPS

With `CCOC(=O)C1C(C)=NC(c2ccccc2)=C(C(=O)OCc2ccccc2)C1C#Cc1ccccc1` (stereo unspecified) [CAS_393594] the Ki was > 100 nM.
